Experiments:
HFFF2 [1] = test: ROS assay (DCFH-DA fluorescence); format: cell-based, human; conditions: GKT137831 40 μM, HFFF2 treated 48 hours with TGF-β1
Procedure: (§1) HFFF2s were plated in 24-well plates (1×10^3 or 5×10^3 cells/well) and treated with TGF-β1 the following day (and then every 3 days). Senescence was quantified at day 5 and 12 from TGF-β1 treatment determining the percentage of SA-β-Gal-positive cells (Sigma) of the total number of cells counterstained with Dapi (Sigma) as previously described. At least 200 cells/well in at least three independent experiments were counted per sample using a CKX41 Olympus fluorescent microscope. Cells were less than 50% confluent at the end of the experiment to avoid SA-β-Gal-false positive cells due to cell contact. ROS assay was performed as previously.

ATM [2] = test: TGF-β1-dependent ATM activation in fibroblasts (Western blotting); format: cell-based, human
Procedure: Human NSCLC cell line H441, HNSCC SCC25, murine cancer cell line TC-1 (lung), MC38 (colon) and human fetal foreskin fibroblasts HFFF2 were purchased from European Collection of Cell Cultures (Public Health England) or ATCC; HNSCC 5PT [32] were provided by l. Mackenzie (Queen Mary University of London, UK). HEK-293T cells and IMR90 lung fibroblasts were provided by Jesus Gil (Imperial College, London, UK). SCC25 were grown in Ham's F12:DMEM (1:1 ratio) medium with 10% FBS (Calbiochem) and 292 μg/ml L-Glutamine. 5PT were cultured in keratinocyte growth medium. HEK-293T, H441, MC38, HFFF2, IMR90 and primary fibroblasts were grown in DMEM supplemented with 10% FBS and 292 μg/ml L-Glutamine. Primary fibroblasts were isolated as previously used at early passage (p1-10). C57BL/6 murine normal lung and colon fibroblasts (MLF and MCF respectively) were grown at 3% oxygen. TC-1 were cultured in RPMI supplemented with 10% FBS and 292 μg/ml L-Glutamine. All cell cultures were routinely tested for mycoplasma contamination. All cells were cultured using standard cell culture plates/flasks (Corning). HFFF2 or IMR90 cells were transfected with 25 μM On-Target pool siRNA (Thermo Scientific/Dharmacon) using Oligofectamine reagent (Life Technologies) as described. Stable knockdown was performed using retro/lentiviral mediated transduction of shRNA plasmids, as previously described followed by cell selection using 1 μg/ml puromycin for 5-7 days. NOX4-inducible HEK-293 cells (kindly provided by Vincent Jaquet) were treated with 1 μg/ml doxycycline. […]
(§2) Cells were lysed in ice-cold RIPA buffer [1% NP40, 150 mM NaCl, 25 mM Tris-HCl pH 7.5, 0.1% SDS, 1% Na-Deoxycolate, 1 mM EGTA, 1 mM EDTA, 1 mM Na-orthovanadate, 10 mM Na-fluoride, 2.5 mM Na-pyrophosphate, 1 mM p glycerophosphate+freshly added 1 mM PMSF, 20 mM N-Ethylmaleimide (NEM), 10 ng/ml Microcystin-LR, 0.12 μM Okadaic acid and phosphatase and protease inhibitor cocktails; all from Sigma]. Protein extracts were then centrifuged and supernatants quantified using Dc-Bio-Rad protein assay kit (Bio-Rad laboratories) as previously. […]

ATM [3] = test: ATM activation and dimerization in CAF nuclear extracts (Western blotting); format: cell-based, human; conditions: GKT137831 daily for 72 hours
Procedure: Human NSCLC cell line H441, HNSCC SCC25, murine cancer cell line TC-1 (lung), MC38 (colon) and human fetal foreskin fibroblasts HFFF2 were purchased from European Collection of Cell Cultures (Public Health England) or ATCC; HNSCC 5PT [32] were provided by l. Mackenzie (Queen Mary University of London, UK). HEK-293T cells and IMR90 lung fibroblasts were provided by Jesus Gil (Imperial College, London, UK). SCC25 were grown in Ham's F12:DMEM (1:1 ratio) medium with 10% FBS (Calbiochem) and 292 μg/ml L-Glutamine. 5PT were cultured in keratinocyte growth medium. HEK-293T, H441, MC38, HFFF2, IMR90 and primary fibroblasts were grown in DMEM supplemented with 10% FBS and 292 μg/ml L-Glutamine. Primary fibroblasts were isolated as previously used at early passage (p1-10). […]
as §2

NOX4 = target: T1, NOX4 (Homo sapiens, UniProt Q9NPH5); conditions: cited from earlier work
T1 sequence (Q9NPH5 1-578): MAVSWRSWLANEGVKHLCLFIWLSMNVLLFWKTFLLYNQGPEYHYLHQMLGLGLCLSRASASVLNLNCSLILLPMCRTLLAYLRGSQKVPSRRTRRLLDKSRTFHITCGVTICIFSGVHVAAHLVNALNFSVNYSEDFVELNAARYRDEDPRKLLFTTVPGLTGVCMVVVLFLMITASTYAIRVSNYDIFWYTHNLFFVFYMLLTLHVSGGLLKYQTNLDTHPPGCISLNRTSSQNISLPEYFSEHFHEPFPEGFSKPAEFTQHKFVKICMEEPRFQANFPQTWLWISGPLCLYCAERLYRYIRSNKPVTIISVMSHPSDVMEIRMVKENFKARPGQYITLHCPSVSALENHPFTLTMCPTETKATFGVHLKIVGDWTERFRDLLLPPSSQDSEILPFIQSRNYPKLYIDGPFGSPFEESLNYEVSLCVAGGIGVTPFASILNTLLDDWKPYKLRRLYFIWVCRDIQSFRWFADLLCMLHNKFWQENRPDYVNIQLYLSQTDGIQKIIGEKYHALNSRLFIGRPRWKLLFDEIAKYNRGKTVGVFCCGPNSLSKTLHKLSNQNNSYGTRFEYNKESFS
T1 sequence (P13498 1-195 partner): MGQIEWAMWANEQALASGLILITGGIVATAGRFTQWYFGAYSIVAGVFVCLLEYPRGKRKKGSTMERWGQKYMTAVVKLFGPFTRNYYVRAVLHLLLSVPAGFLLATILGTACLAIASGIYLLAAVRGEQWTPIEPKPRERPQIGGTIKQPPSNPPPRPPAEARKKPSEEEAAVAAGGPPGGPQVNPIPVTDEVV

HFFF2 [4] = test: Senescence assay (SA-β-Gal); format: cell-based, human; conditions: continuous TGF-β1 administration, at 12 days
Procedure: as §1

[5] = GKT137831 40 μM, HFFF2, TGF-β1 24 hours

Row | Molecule | ROS production (HFFF2 [1]) | ATM downstream kinase activity (ATM [2]; [5]) | ATM phosphorylation (ATM [2]; [5]) | DNA damage monitored by pH2AX protein expression (ATM [2]; GKT137831, HFFF2, TGF-β1 48 hours) | ATM dimerization (ATM [3]; non-reducing conditions) | ATM activation (ATM [3]; two HNSCC CAF and one NSCLC CAF) | myoCAF differentiation (NOX4) | myoCAF-mediated immunotherapy resistance (NOX4) | % range SA-β-Gal-positive cells (HFFF2 [4])
1 | CN(C)c1cccc(-c2c3c(=O)n(-c4ccccc4Cl)[nH]c3cc(=O)n2C)c1 [GKT137831] | suppressed | inhibited | inhibited | decreased | inhibited | inhibited | suppresses | overcomes | 
2 | TGF-β1: cytokine (R&D Systems) used to induce myofibroblast differentiation |  |  |  |  |  |  |  |  | 15.8-23.3%
